Assay results reported in patent US11001569B2, “6-membered heteroaromatic substituted cyanoindoline derivatives as NIK inhibitors” (Janssen Pharmaceutica NV, priority 2016, dated 2021).
“And” between values parts separate entries of the source, which are not always exact repeats. Equal values may be shown once. Read-outs that look alike come from different tables or passages of the source.

Tests used:
[1] = test system: JJN-3 (NIK translocated) multiple myeloma cells; assay: Antiproliferative activity on JJN-3 multiple myeloma cells (CellTiter-Glo); type: cell-based, human; conditions: JJN-3 (NIK translocated) cells, 96 hr treatment, averaged values, read-out: JJN-3 Proliferation inhibition (IC50 (nM))
Description: (§1) Determination of Antiproliferative Activity on JJN-3 (NIK Translocated) and KMS12-BM (NIK WT) Multiple Myeloma Cells
(§2) All compounds tested were dissolved in DMSO and further dilutions were made in culture medium. Final DMSO concentration was 0.3% (v/v) in cell proliferation assays. Viability was assessed using CellTiter-Glo cell viability assay kit (Promega). […] Cells were routinely kept as suspension cells at 37° C. in a humidified 5% CO2 atmosphere. Cells were passaged at a seeding density of 0.2×10^6/ml twice a week. Cells were seeded in black tissue culture treated 96-well plates (Perkin Elmer). Densities used for plating ranged from 15000 (JJN3) to 20000 (KMS12BM) cells per well in a total volume of 135 μl medium. Drugs and/or solvents were added (15 μl) to a final volume of 150 μl. Following 96 hr of treatment, plates were removed from the incubator and allowed to equilibrate to room temperature for approx 10 min. 75 μl CellTiter-Glo reagent was added to each well that was then covered (Perkin Elmer Topseal) and shaken on plate shaker for 10 min. Luminescence was measured on a HTS Topcount (Perkin Elmer). […] For initial screening purposes, compounds were tested using a 9 point dilution curve (serial 1:3 dilutions). For each experiment, controls (containing no drug) and a blank incubation (containing cells read at the time of compound addition) were run in parallel. The blank value was subtracted from all control and sample values. For each sample, the mean value for cell growth (in relative light units) was expressed as a percentage of the mean value for cell growth of the control.

[2] = test system: KMS12-BM (NIK WT) multiple myeloma cells; assay: Antiproliferative activity on KMS12-BM multiple myeloma cells (CellTiter-Glo); type: cell-based, human; conditions: 96 hr treatment, averaged values, read-out: KMS-12 Proliferation inhibition (IC50 (nM))
Description: as §1, §2

[3] = biological target: recombinant human NF-kappaB-inducing Kinase (NIK/MAP3K14) (Homo sapiens, UniProt Q99558); assay: Inhibition of auto-phosphorylation of recombinant human NIK/MAP3K14 activity (AlphaScreen); type: biochemical; conditions: 25 microM ATP, averaged over all measurements on all batches
Description: Pharmacological Part Biological assay A Inhibition of auto-phosphorylation of recombinant human NF-kappaB-inducing Kinase (NIK/MAP3K14) Activity (AlphaScreen®)
NIK/MAP3K14 auto-phosphorylation activity was measured using the AlphaScreen® (αscreen) format (Perkin Elmer). All compounds tested were dissolved in dimethyl sulfoxide (DMSO) and further dilutions were made in assay buffer. Final DMSO concentration was 1% (v/v) in assays. Assay buffer was 50 mM Tris pH 7.5 containing 1 mM EGTA (ethylene glycol tetraacetic acid), 1 mM DTT (dithiothreitol), 0.1 mM Na3VO4, 5 mM MgCl2, 0.01% Tween® 20. Assays were carried out in 384 well Alphaplates (Perkin Elmer). […] Incubations were initiated by addition of GST-tagged NIK/MAP3K14 enzyme, carried out for 1 h at 25° C. and terminated by addition of stop buffer containing anti-phospho-IKK Ser176/180 antibody. Protein A Acceptor and Glutathione-Donor beads were added before reading using an EnVision® Multilabel Plate Reader (Perkin Elmer). Signal obtained in the wells containing blank samples was subtracted from all other wells and IC50's were determined by fitting a sigmoidal curve to % inhibition of control versus Log10 compound concentration.

Chain of recombinant human NF-kappaB-inducing Kinase (NIK/MAP3K14) (Q99558 whole entry): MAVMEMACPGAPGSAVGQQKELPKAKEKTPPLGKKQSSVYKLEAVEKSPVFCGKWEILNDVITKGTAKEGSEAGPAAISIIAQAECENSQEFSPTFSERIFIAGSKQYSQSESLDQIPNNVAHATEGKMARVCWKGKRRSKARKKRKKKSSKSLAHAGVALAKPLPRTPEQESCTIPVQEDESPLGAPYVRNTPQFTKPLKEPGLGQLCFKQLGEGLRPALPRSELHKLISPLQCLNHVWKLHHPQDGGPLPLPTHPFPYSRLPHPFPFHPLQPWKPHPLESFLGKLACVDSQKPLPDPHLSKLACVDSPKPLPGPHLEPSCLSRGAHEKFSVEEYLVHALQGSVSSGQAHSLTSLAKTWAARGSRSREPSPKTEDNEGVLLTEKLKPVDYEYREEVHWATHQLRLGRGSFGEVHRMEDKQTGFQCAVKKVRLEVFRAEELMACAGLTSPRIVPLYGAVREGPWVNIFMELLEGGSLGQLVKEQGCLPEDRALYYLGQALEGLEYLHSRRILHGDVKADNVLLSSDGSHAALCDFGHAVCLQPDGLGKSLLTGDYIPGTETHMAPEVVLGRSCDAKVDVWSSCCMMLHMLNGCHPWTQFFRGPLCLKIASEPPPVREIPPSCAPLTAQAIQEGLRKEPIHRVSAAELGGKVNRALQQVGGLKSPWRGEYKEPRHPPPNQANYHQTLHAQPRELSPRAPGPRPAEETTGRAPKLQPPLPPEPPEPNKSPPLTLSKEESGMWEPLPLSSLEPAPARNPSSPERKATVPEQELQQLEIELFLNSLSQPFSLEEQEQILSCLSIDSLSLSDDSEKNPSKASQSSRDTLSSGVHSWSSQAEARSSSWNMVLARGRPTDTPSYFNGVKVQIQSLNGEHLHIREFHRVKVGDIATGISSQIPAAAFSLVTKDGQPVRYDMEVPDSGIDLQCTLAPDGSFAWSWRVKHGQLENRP

| SMILES | IC50 [1] | IC50 ([2]; Homo sapiens, KMS-12-BM, 96 h) | melting point | IC50 [3] | IC50 ([1]; Homo sapiens, JJN-3, 96 h) | IC50 ([1]; Homo sapiens) | IC50 ([2]; Homo sapiens, KMS-12-BM) | IC50 [2] |
| --- | --- | --- | --- | --- | --- | --- | --- | --- |
| Cc1ncc(Nc2nccc(-c3cc(C#N)c4c(c3)[C@@](C)(CO)CN4)n2)c(OCC2CCCO2)n1 (single isomer, unassigned) [Compound 137] | 525 nM | > 10000 nM | 200 °C | 16.2 nM |  |  |  |  |
| COc1ncc(Cl)cc1Nc1nccc(-c2cc(C#N)c3c(c2)C(C)(CO)CN3)n1 (stereo not drawn) [Compound 3] |  | > 10000 nM | 254 °C | 8.3 nM | 81 nM |  |  |  |
| Cc1ncc(Cl)cc1Nc1nccc(-c2cc(C#N)c3c(c2)C(C)(CO)CN3)n1 (stereo not drawn) [Compound 4] |  | ~7410 nM | 277 °C and 280 °C | 3.6 nM | 97 nM |  |  |  |
| CC1(CO)CNc2c(C#N)cc(-c3ccnc(Nc4cc(Cl)cnc4Cl)n3)cc21 (stereo not drawn) [Compound 5] |  | > 10000 nM | 261 °C | ~8.51 nM | 170 nM |  |  |  |
| COc1ncccc1Nc1nccc(-c2cc(C#N)c3c(c2)[C@@](C)(CO)CN3)n1 [Compound 6] |  | > 10000 nM | 241 °C | 2.4 nM | ~245 nM |  |  |  |
| COc1ncccc1Nc1nccc(-c2cc(C#N)c3c(c2)[C@](C)(CO)CN3)n1 [Compound 7] |  | > 10000 nM | 245 °C | 15.5 nM | 1580 nM |  |  |  |
| CCOC(=O)c1ccc(Nc2nccc(-c3cc(C#N)c4c(c3)C(C)(CO)CN4)n2)cn1 (stereo not drawn) [Compound 9] |  | 427 nM | 238 °C | 5.3 nM | 219 nM |  |  |  |
| COCCNc1nc(OC)c(Nc2nccc(-c3cc(C#N)c4c(c3)[C@@](C)(CO)CN4)n2)cc1Cl [Compound 10] |  | > 10000 nM | 231 °C | 8.5 nM | 58 nM |  |  |  |
| COCCCn1cccc(Nc2nccc(-c3cc(C#N)c4c(c3)[C@@](C)(CO)CN4)n2)c1=O [Compound 10i] |  | 4790 nM | 192 °C | 3 nM | 339 nM |  |  |  |
| COCCNc1nc(OC)c(Nc2nccc(-c3cc(C#N)c4c(c3)[C@](C)(CO)CN4)n2)cc1Cl [Compound 11] |  | > 10000 nM | 236 °C | 10.5 nM | ~347 nM |  |  |  |
| COCCNc1ccc(Nc2nccc(-c3cc(C#N)c4c(c3)C(C)(CO)CN4)n2)c(OC)n1 (stereo not drawn) [Compound 12] |  | > 10000 nM | 120 °C | 12.9 nM | 589 nM |  |  |  |
| COCCNc1nc(OC(C)C)c(Nc2nccc(-c3cc(C#N)c4c(c3)C(C)(CO)CN4)n2)cc1Cl (stereo not drawn) [Compound 13] |  | > 10000 nM | 125 °C | 28.8 nM | 447 nM |  |  |  |
| COc1ncc(Cl)cc1Nc1nccc(-c2cc(C#N)c3c(c2)[C@@](C)(CO)CN3)n1 [Compound 14] |  | > 10000 nM | 266 °C | 5.5 nM | 372 nM |  |  |  |
| Cn1cc(Cl)cc(Nc2nccc(-c3cc(C#N)c4c(c3)C(C)(CO)CN4)n2)c1=O (stereo not drawn) [Compound 15i] |  | > 10000 nM | 295 °C | 3.6 nM | ~427 nM |  |  |  |
| CCOc1ncccc1Nc1nccc(-c2cc(C#N)c3c(c2)C(C)(CO)CN3)n1 (stereo not drawn) [Compound 16] |  | > 10000 nM | 248 °C | 3.8 nM | 245 nM |  |  |  |
| [2H]C([2H])([2H])Oc1ncccc1Nc1nccc(-c2cc(C#N)c3c(c2)C(C)(CO)CN3)n1 (stereo not drawn) [Compound 17] |  | > 10000 nM | 248 °C | 2.5 nM | 288 nM |  |  |  |
| CC(C)Oc1ncccc1Nc1nccc(-c2cc(C#N)c3c(c2)C(C)(CO)CN3)n1 (stereo not drawn) [Compound 18] |  | > 10000 nM | 140 °C | 9.1 nM | 776 nM |  |  |  |
| CC(C)OCCOc1ncccc1Nc1nccc(-c2cc(C#N)c3c(c2)[C@@](C)(CO)CN3)n1 [Compound 19] |  | > 10000 nM | 154 °C | 14.5 nM | 912 nM |  |  |  |
| COc1cnccc1Nc1nccc(-c2cc(C#N)c3c(c2)[C@@](C)(CO)CN3)n1 [Compound 20] |  | > 10000 nM | > 260 °C | 0.9 nM | 1580 nM |  |  |  |
| CC(C)OCCOc1ncc(Cl)cc1Nc1nccc(-c2cc(C#N)c3c(c2)[C@@](C)(CO)CN3)n1 [Compound 21] |  |  | 170 °C | 22.4 nM |  | 813 nM | > 10000 nM |  |
| C[C@]1(CO)CNc2c(C#N)cc(-c3ccnc(Nc4cccnc4OC4CCOCC4)n3)cc21 [Compound 23] |  | 7410 nM | 213 °C | 4.9 nM | 708 nM |  |  |  |
| COc1cccnc1Nc1nccc(-c2cc(C#N)c3c(c2)[C@@](C)(CO)CN3)n1 [Compound 24] |  | > 10000 nM | 145 °C | 123 nM | 6920 nM |  |  |  |
| C[C@]1(CO)CNc2c(C#N)cc(-c3ccnc(Nc4cccnc4O[C@H]4CCCOC4)n3)cc21 [Compound 26] |  | > 10000 nM | 155 °C | 4.1 nM | 794 nM |  |  |  |
| C[C@]1(CO)CNc2c(C#N)cc(-c3ccnc(Nc4cccnc4O[C@@H]4CCCOC4)n3)cc21 [Compound 27] |  | 7410 nM | 149 °C | 3.6 nM | 1510 nM |  |  |  |
| C[C@]1(CO)CNc2c(C#N)cc(-c3ccnc(Nc4cccnc4O[C@H]4CCOC4)n3)cc21 [Compound 28] |  | 3090 nM | 194 °C | 3.2 nM | 813 nM |  |  |  |
| COC[C@@]1(C)CNc2c(C#N)cc(-c3ccnc(Nc4cc(Cl)cnc4C)n3)cc21 [Compound 145] | 479 nM |  |  | 9.5 nM |  |  |  | 4790 nM |
| Cc1cnc(OCC2(C)COC2)c(Nc2nccc(-c3cc(C#N)c4c(c3)[C@@](C)(CO)CN4)n2)c1 [Compound 147] |  |  | > 260 °C | 7.9 nM |  |  |  |  |
| Cc1nccnc1Nc1nccc(-c2cc(C#N)c3c(c2)[C@@](C)(CO)CN3)n1 [Compound 163] |  | ~5010 nM |  | 34.7 nM | 3160 nM |  |  |  |
